“Also recorded” adds a separate entry of the source.
Assays:
ADPKD cells = assay: 3D cyst culture in Matrigel/collagen with forskolin and EGF; type: cell-based, human; conditions: 3D culture, treatment from day 1, evaluated on day 6
Procedure: FIGS. 2A-C depict functional nanoparticle-targeting in 3-dimensional culture. FIG. 2A: Human renal epithelia from normal kidney (NK) cells and autosomal dominant polycystic kidney disease (ADPKD) were grown to form cysts in a 3D Matrigel system with collagen in the presence of forskolin and EGF for 1 day followed by different treatments for 5 additional days. All representative live DIC and fluorescence images were taken at 6 days. Control treatment was denoted as vehicle (saline-only). 3D non-cyst/cyst cultures were imaged for nanoparticles uptake, cyst formation and cysts size measurements. The inset images at the right showing the enlarged cystic area taken from the white square boxes selected from the images at the left. Scale bar, 200 μm. FIG. 2B: Percent number of cysts were measured and plotted in bar graphs; each point represents an averaged of replicate.
3D cyst culture and live imaging. […] To assess the effects of vehicle (saline) and different plain and drug-loaded nanoparticles (1 mg/mL) were added (10 μL) on day one after stimulation with forskolin and cyst formation were evaluated on day 6. The cyst growth was observed by using Nikon live cell microscope using its DIC and fluorescence capabilities. […] Using ×20 lens, the number of cysts and their sizes (in diameter) in each well was counted and measured using an ocular scale from the Nikon Eclipse Imaging Software. […]

mTOR signaling pathway = assay: Immunoblotting of p-S6K and p-S6 in kidney lysates; type: in vivo, mice; conditions: end of 9 weeks of therapy
Procedure: Drug-NPs were administered intravenously once, while drug-only was intravenously injected daily. N=5. […] Total-S6K (t-S6K), total-S6 (t-S6) and equal loading control (GAPDH). N=3. FIG. 4C: Immunoblot data for p-S6K in bar graphs. […] Statistical analysis was performed using ANOVA followed by Tukey's multiple comparison test.
Immunoblotting. After the completion of in-life studies, mice treated with the different control, plain and drug-loaded nanoparticles were euthanized, and the kidneys were collected and rinsed with PBS. Approximately 100 mg of tissue samples were placed in RIPA buffer supplemented with Complete Protease Inhibitor (MedChemExpress). […] Samples were then centrifuged at 20 000 rpm for 15 min, and the supernatants were collected and subjected to protein quantification. The PAGE (polyacrylamide gel electrophoresis) on 8-10% SDS gels was performed, followed by semi-dry transfer to PVDF membranes using a Bio-Rad Trans-Blot (Turbo Transfer) machine and detection using antibodies against p-S6 (1:000), p-S6K (1:1000), t-S6 (1:2000), t-S6K (1:2000) and GAPDH (1:1,000) (Cell Signaling Technology). Blots were scanned with both calorimetries to image molecular markers and chemiluminescence to capture the protein signal intensity using a BioRad Gel-doc imaging system.

[1] = Drug release from NPs by dialysis and HPLC; type: physicochemical; conditions: monitored over a 7-day period; growth media with serum
Excerpt: FIGS. 1A-I depict synthesis and characterization of polycystic kidney targeted nanoparticles. FIG. 1A: Schematic representation of synthesis, drug loading and surface functionalization of PLGA nanoparticles. FIG. 1B: The morphological features of the plain (unloaded) and drugs-loaded PLGA nanoparticles were imaged with scanning electron microscopy. Scale bars, 200 nm. FIG. 1C: Hydrodynamic size distribution of unloaded and drugs-loaded nanoparticles. FIG. 1D: Average zeta-potential measurements of unloaded and drugs-loaded nanoparticles. FIG. 1E: Average hydrodynamic size stability measurements of nanoparticles in saline (PBS), mouse plasma and growth media (DMEM) containing fetal bovine serum. […]
For both rapamycin and 4-hydoxy-TEMPO encapsulated nanoparticles (RapaTEMPO-NPs) were synthesized by a combination (1000 mg) and rapamycin (20 mg) and 4-hydoxy-TEMPO (20 mg) (polymer to total drug ratio […]) was chosen. […] XPS spectra of the samples were recorded on a Kratos Analytical AXIS Supra system with a monochromated Al/Ag X-ray source (Al target). Total survey spectra were recorded in a range from 1300 to −5 eV binding energy (dwell time 200 ms, step size 1 eV, 2 sweeps), and all the region scans were conducted with suitable ranges (dwell time 500 ms, step size 0.05 eV and 5 sweeps). […]

[2] = Drug loading of NPs quantified by HPLC; type: physicochemical; conditions: loading into PLGA nanoparticles
Procedure: For both rapamycin and 4-hydoxy-TEMPO encapsulated nanoparticles (RapaTEMPO-NPs) were synthesized by a combination (1000 mg) and rapamycin (20 mg) and 4-hydoxy-TEMPO (20 mg) (polymer to total drug ratio […]) was chosen. Also, 50 mg of 3,3′-diethylthiadicarbocyanine iodide (Cy5, 680 fluorescent emission agent) was dissolved in 20 mL of DMSO. The mixture was then added into the dispersing phase (40 mL of water with 1.2 mL of 10% Pluronic F-68) dropwise under moderate magnetic stirring (500 rpm, 1 h). For size and shape measurements, synthesized nanomaterials were examined by SEM using a TESCAN GAIA-3 XMH integrated focused ion beam-FESEM electron microscope. […] XPS spectra of the samples were recorded on a Kratos Analytical AXIS Supra system with a monochromated Al/Ag X-ray source (Al target). Total survey spectra were recorded in a range from 1300 to −5 eV binding energy (dwell time 200 ms, step size 1 eV, 2 sweeps), and all the region scans were conducted with suitable ranges (dwell time 500 ms, step size 0.05 eV and 5 sweeps). The FTIR spectra were recorded using a Bruker ALPHA (Platinum-ATR) spectrometer in the diffuse reflectance mode at a resolution of 4 cm^−1. The rapamycin and 4-yydoxy-TEMPO loading efficiencies were quantified by High-Performance Liquid Chromatography (HPLC; SHIMADZU). […]

Pkd2 mice [3] = assay: CT imaging of total kidney volume; type: in vivo; conditions: CT at 3, 6 and 9 weeks
Procedure: FIGS. 20A-C. FIGS. 20A-B depict coronal and trans-axial CT imaging of mice at 3, 6 and 9 weeks of treatment time. FIG. 20C: Plots showing the total kidney volume at 3, 6 and 9 weeks of treatment time.
Because RapaTEMPO-NPs were applied prior to severe cystic development in the kidneys, lateral (FIG. 20A) and cross-section (FIG. 20B) of computerized tomography scans were performed in the kidneys at 3-, 6- and 9-weeks to monitor progression of changes in kidney volume. […] Longitudinal effects on blood pressure were also monitored throughout the treatment period (FIG. 21). The increase in blood pressure in kidney-specific Pkd2 seemed to be associated with expansion of renal cysts leading to compression in renal vasculature and eventual RAAS activation.

polycystic kidneys = conditions: literature; cited from earlier work
Pkd2 mice [4] = assay: 9-week treatment of Pkd2 mice: body weight, survival, cysts, fibrosis, kidney fluorescence; conditions: long-term use, drug-alone 1 mg/kg i.v. daily
Excerpt: FIG. 5A: Kidney comparison of wild-type (WT) and Pkd2 kidneys after 9-weeks of treatment. Color, brightfield, fluorescent images were captured consecutively. The hematoxylin and eosin (H&E) sections were obtained from the same corresponding kidneys.
FIG. 5B: Fluorescence intensity measurements from isolated kidneys were normalized to total kidney volume (TKV). […] FIG. 5D: Total kidney weight measurement. FIG. 5D. Percent weight ratio of 2 kidneys to body weight (2 KW/BW). FIG. 5F: Total cyst number calculated using H&E staining. FIG. 5G: Kaplan-Meier survival curves analyzed with Log-rank test. N=5 for all experiments. *P<0.05, **P<0.01, ***P<0.001, ****P<0.0001 compared to wild-type vehicle. #P<0.05, ##P<0.01, #44P<0.001, #44t #P<0.0001 compared to Pkd2 vehicle. Statistical analysis was performed using ANOVA followed by Tukey's multiple comparison test.
Animal studies. […] All animal experimentation was conducted as double-blinded operators to disregard biases and critical analyses. All control (KspCre·Pkd2^WT/WT) and PKD (KspCre·Pkd2^flox/flox) non-inducible mice models were obtained from the Jackson Laboratory and Harvard Medical School.
Histology Studies. Sections of the mouse visceral organs (hearts, kidneys, livers, spleens, and lung)s, were collected and subjected to hematoxylin and eosin (H&E) staining by starting the tissue fixation using 10% formalin. Then, the tissues were dehydrated in buffered formalin, ethanol, and xylene. Finally, the tissues were embedded in liquid paraffin, sectioned (5 μm), and stained with H&E for histological examinations. The pathology slices were observed and imaged using a KEYENCE BZ-X710 microscope. Mouse normal and polycystic kidney sections were stained with Masson's trichrome to detect fibrosis using a Masson's Trichrome Stain Kit (Polysciences, Inc.).
Throughout the studies, KspCre·Pkd2^WT/WT and KspCre·Pkd2^flox/flox mouse models were used and are respectively referred to wild-type and Pkd2 mice henceforth.

Compound	Cyst number and size (ADPKD cells)	Effect on levels of phosphorylation of S6K and S6 (mTOR signaling pathway)	Time of maximum drug release from NPs [1]	Drug loading, weight ratio drug/NPs [2]	Total kidney volume over treatment time (Pkd2 mice [3])	Kidney injury and fibrosis (polycystic kidneys)	Body weight (Pkd2 mice [4])	Body weight (Pkd2 mice [4]; listed as rapamycin-alone)
CC1(C)CC(O)CC(C)(C)N1[O] [4-hydroxy-[2,2,6,6-tetramethylpiperidin-1-yl]oxidanyl]	some effect	minimal effect	about 3 days	34.7±3.1%	no effect in kidney volume expansion	alleviate kidney injury and fibrosis by reducing renal superoxide	–	–
CO[C@H]1C[C@@H]2CC[C@@H](C)[C@@](O)(O2)C(=O)C(=O)N2CCCC[C@H]2C(=O)O[C@H]([C@H](C)C[C@@H]2CC[C@@H](O)[C@H](OC)C2)CC(=O)[C@H](C)/C=C(\C)[C@@H](O)[C@@H](OC)C(=O)[C@H](C)C[C@H](C)/C=C/C=C/C=C/1C [rapamycin]	–	–	–	–	–	–	reduced	significantly lowered the body weight; also recorded: nor reduces the impediment in body weight gain
